The results in this text go back to patent publication US6683077B2, “2-Amino-benzoxazinones for the treatment of viral infections” (G.D. Searle & Co., priority 1996, dated 2004).

pEC50: −log10 of the molar value.

For this assay, the system named is HCMV engineered virus RC256. The experiment in a line: microbe, parasite or virus in culture. It is filed as cell-based, human cytomegalovirus. Conditions: Human betaherpesvirus 5, Fibroblast, read-out: Antiviral Activity RC256, first value (EC50).
One may read the pEC50 as −log10 of the EC50, conventionally taken in molar units. As to `COc1ccc(C[C@H](Nc2nc3ccc(CNC(=O)CCc4cccnc4)c(C)c3c(=O)o2)C(=O)N(C)Cc2ccccc2)cc1` [Example 9d, N-[[2-[[1S-[(4-Methoxyphenyl)methyl]-2-[methyl(phenylmethyl)amino]-2-oxoethyl]amino]-5-methyl-4-oxo-4H-3,1-benzoxazin-6-yl]methyl]pyridine-3-propanamide], the pEC50 was 4.39.

As for `COc1ccc(C[C@H](Nc2nc3ccc(CNC(=O)NCc4ccncc4)c(C)c3c(=O)o2)C(=O)N(C)Cc2ccccc2)cc1` [Example 9e, 4-Methoxy-N-methyl-αS-[[5-methyl-4-oxo-6-[[[[[(4-pyridinyl)methyl]amino]carbonyl]amino]methyl]-4H-3,1-benzoxazin-2-yl]amino]-N-(phenylmethyl)benzenepropanamide], the pEC50 was 4.46. For the molecule `COc1ccc(C[C@H](Nc2nc3ccc(CNC(=O)CCc4ccncc4)c(C)c3c(=O)o2)C(=O)N(C)Cc2ccccc2)cc1` [Example 9f, N-[[2-[[1S-[(4-Methoxyphenyl)methyl]-2-[methyl(phenylmethyl)amino]-2-oxoethyl]amino]-5-methyl-4-oxo-4H-3,1-benzoxazin-6-yl]methyl]pyridine-4-propanamide], the pEC50 was 4.40. In the case of `COc1ccc(C[C@H](Nc2nc3ccc(CNC(=O)OCc4ccccc4)c(C)c3c(=O)o2)C(=O)N(C)Cc2ccccc2)cc1` [Example 9i, Phenylmethyl[[2-[[1S-[(4-methoxyphenyl)methyl]-2-[methyl(phenylmethyl)amino]-2-oxcethyl]amino]-5-methyl-4-oxo-4H-3,1-benzoxazin-6-yl]methyl]carbamate] it was 4.85; in that of `COc1ccc(C[C@H](Nc2nc3ccc(CNC(=O)C(C)(C)C)c(C)c3c(=O)o2)C(=O)N(C)Cc2ccccc2)cc1` [Example 9l, αS-[[6-[[(2,2-Dimethyl-1-oxopropyl)amino]methyl]-5-methyl-4-oxo-4H-3,1-benzoxazin-2-yl]amino]-4-methoxy-N-methyl-N-(phenylmethyl)benzenepropanamide], 4.19; in that of `COc1ccc(C[C@H](Nc2nc3ccc(CNC(=O)CN4CCOCC4)c(C)c3c(=O)o2)C(=O)N(C)Cc2ccccc2)cc1` [Example 9n, N-[[2-[[1S-[(4-Methoxyphenyl)methyl]-2-[methyl(phenylmethyl)amino]-2-oxoethyl]amino]-5-methyl-4-oxo-4H-3,1-benzoxazin-6-yl]methyl]morpholine-4-acetamide], 4.12. The figure for `Cc1c(CNC(=O)OCc2ccccc2)ccc2nc(N[C@@H](Cc3ccc(Cl)cc3)C(=O)N(C)Cc3ccccc3)oc(=O)c12` [Example 9t, Phenylmethyl[[2-[[1S-[(4-chlorophenyl)methyl]-2-[methyl(phenylmethyl)amino]-2-oxoethyl]amino]-5-methyl-4-oxo-4H-3,1-benzoxazin-6-yl]methyl]carbamate] is 4.70. `COc1ccc(C[C@H](Nc2nc3ccc(CNC(=O)CCc4ccccc4)c(C)c3c(=O)o2)C(=O)N(C)Cc2ccccc2)cc1` [Example 9u, 4-Methoxy-N-methyl-αS-[[5-methyl-6-[[(1-oxo-3-phenylpropyl)amino]methyl]-4-oxo-4H-3,1-benzoxazin-2-yl]amino]-N-(phenylmethyl)benzenepropanamide]: the pEC50 is 4.74.

With `Cc1c(CNC(=O)C=Cc2ccccc2)ccc2nc(N[C@@H](Cc3ccccc3)C(=O)N(C)Cc3ccccc3)oc(=O)c12` [Example 9v, N-Methyl-αS-[[5-methyl-6-[[(1-oxo-3-phenyl-2-propenyl)amino]methyl]-4-oxo-4H-3,1-benzoxazin-2-yl]amino]-N-(phenylmethyl)benzenepropanamide], the pEC50 was 4.59.

In the case of `Cc1c(CNC(=O)CCc2ccccc2)ccc2nc(N[C@@H](Cc3ccccc3)C(=O)N(C)Cc3ccccc3)oc(=O)c12` [Example 9w, N-Methyl-αS-[[5-methyl-6-[[(1-oxo-3-phenylpropyl)amino]-methyl]-4-oxo-4H-3,1-benzoxazin-2-yl]amino]-N-(phenylmethyl)benzenepropanamide], the pEC50 is 4.89. On to `CC(=O)NCc1ccc2nc(N[C@@H](Cc3ccccc3)C(=O)N(C)Cc3ccccc3)oc(=O)c2c1C` [Example 9x, αS-[[6-[(Acetylamino)methyl]-5-methyl-4-oxo-4H-3,1-benzoxazin-2-yl]amino]-N-methyl-N-(phenylmethyl)benzenepropanamide], for which the pEC50 was 4.80.

Regarding `Cc1c(CNC(=O)OCc2ccccc2)ccc2nc(N[C@@H](Cc3ccccc3)C(=O)N(C)Cc3cccnc3)oc(=O)c12` [Example 9z], the pEC50 was 5.00. The figure for `COC(=O)[C@H](Cc1ccccc1)Nc1nc2ccc(NC(=O)Cc3cccs3)c(C)c2c(=O)o1` [Example 11g, N-[6-[[(2-Thienylmethyl)carbonyl]amino]-5-methyl-4-oxo-4H-3,1-benzoxazin-2-yl]-L-phenylalanine, methyl ester] is 5.00; for `COc1ccc(C[C@H](Nc2nc3ccc(NC(=O)Cc4cccs4)c(C)c3c(=O)o2)C(=O)N2CCCC2)cc1` [Example 11o, N-[2-[[1S-[(4-Methoxyphenyl)methyl]-2-oxo-2-(1-pyrrolidinyl)ethyl]amino]-5-methyl-4-oxo-4H-3,1-benzoxazin-6-yl]thiophene-2-acetamide] it is 4.23; for `CCOC(=O)Nc1ccc2nc(N[C@@H](Cc3ccc(OC)cc3)C(=O)N(C)Cc3ccccc3)oc(=O)c2c1C` [Example 11r, Ethyl[2-[[1S-[(4-methoxyphenyl)methyl]-2-[methyl(phenylmethyl)amino]-2-oxoethyl]amino]-5-methyl-4H-3,1-benzoxazin-6-yl]carbamate] it is 4.92. As to `Cc1c(NC(=O)N[C@H](C)c2ccccc2)ccc2nc(N[C@H](C)c3ccccc3)oc(=O)c12` [Example 12c, ^6-[[[[(1R)-Phenylethyl]amino]carbonyl]amino]-5-methyl-2-[[(1R)-phenylethyl]amino]-4H-3,1-benzoxazin-4-one], the pEC50 was 4.77. In the case of `COc1ccc(C[C@H](Nc2nc3ccc(CNC(=O)NC(C)(C)C)c(C)c3c(=O)o2)C(=O)N(C)Cc2ccccc2)cc1` [Example 12d, αS-[[6-[[[[(1,1-Dimethylethyl)amino]carbonyl]amino]methyl]-5-methyl-4-oxo-4H-3,1-benzoxazin-2-yl]amino]-4-methoxy-N-methyl-N-(phenylmethyl)benzenepropanamide] it was 4.85; in that of `Cc1c(CNC(=O)NC(C)(C)C)ccc2nc(N[C@@H](Cc3ccccc3)C(=O)N(C)Cc3ccccc3)oc(=O)c12` [Example 12e, αS-[[6-[[[[(1,1-Dimethylethyl)amino]carbonyl]amino]methyl]-5-methyl-4-oxo-4H-3,1-benzoxazin-2-yl]amino]-N-methyl-N-(phenylmethyl)benzenepropanamide], 4.85.

As to `COC(=O)[C@H](Cc1ccccc1)Nc1nc2ccc(NS(=O)(=O)c3ccccc3)c(C)c2c(=O)o1` [Example 13], the pEC50 was 4.22. The figure for `COC(=O)[C@H](C)Nc1nc2ccc(NS(=O)(=O)c3ccccc3)c(C)c2c(=O)o1` [Example 13a] is 4.22; for `Cc1c(CNC(=O)CN(C)C)cc(Br)c2nc(N[C@@H](Cc3ccccc3)C(=O)N(C)Cc3ccccc3)oc(=O)c12` [Example 15a, αS-[[8-Bromo-6-[[[2-(dimethylamino)acetyl]amino]methyl]-5-methyl-4-oxo-4H-3,1-benzoxazin-2-yl]amino]-N-methyl-N-(phenylmethyl)benzenepropanamide] it is 4.68; for `Cc1c(CNS(C)(=O)=O)cc(Br)c2nc(N[C@@H](Cc3ccccc3)C(=O)N(C)Cc3ccccc3)oc(=O)c12` [Example 15j, αS-[[8-Bromo-5-methyl-6-[[(methylsulfonyl)amino]methyl]-4-oxo-4H-3,1-benzoxazin-2-yl]amino]-N-methyl-N-(phenylmethyl)benzenepropanamide] it is 4.89.

For `COc1ccc(C[C@H](Nc2nc3ccc(N(C)C)c(C)c3c(=O)o2)C(=O)N(C)Cc2ccccc2)cc1` [Example 16a, αS-[[6-(Dimethylamino)-5-methyl-4-oxo-4H-3,1-benzoxazin-2-yl]amino]-4-methoxy-N-methyl-N-(phenylmethyl)benzenepropanamide], the negative logarithm of the EC50 (pEC50) was 4.82. For `COc1ccc(C[C@H](Nc2nc3ccc(CNC(=O)OCc4cccnc4)c(C)c3c(=O)o2)C(=O)N(C)Cc2ccccc2)cc1` [Example 18, 3-Pyridinylmethyl[[2-[[1S-[(4-methoxyphenyl)methyl]-2-[methyl(phenylmethyl)amino]-2-oxoethyl]amino]-5-methyl-4-oxo-4H-3,1-benzoxazin-6-yl]methyl]carbamate], the pEC50 is 4.85. Turning to `COc1ccc(C[C@H](Nc2nc3ccc(CNC(=O)OCCN4CCCCC4)c(C)c3c(=O)o2)C(=O)N(C)Cc2ccccc2)cc1` [Example 18a, 2-(1-Piperidinyl)ethyl[[2-[[1S-[(4-methoxyphenyl)methyl]-2-[methyl(phenylmethyl)amino]-2-oxoethyl]amino]-5-methyl-4-oxo-3,1-benzoxazin-6-yl]methyl]carbamate], the pEC50 is 5.30.

On to `COc1ccc(C[C@H](Nc2nc3ccc(CNC(=O)OCCN4CCOCC4)c(C)c3c(=O)o2)C(=O)N(C)Cc2ccccc2)cc1` [Example 18b, 2-(4-Morpholinyl)ethyl[[2-[[1S-[(4-methoxyphenyl)methyl]-2-[methyl(phenylmethyl)amino]-2-oxoethyl]amino]-5-methyl-4-oxo-3,1-benzoxazin-6-yl]methyl]carbamate], for which the pEC50 is 4.92. With `COc1ccc(C[C@H](Nc2nc3ccc(CNC(=O)OCCN(C)C)c(C)c3c(=O)o2)C(=O)N(C)Cc2ccccc2)cc1` [Example 18c, 2-(Dimethylamino)ethyl[[2-[[1S-[(4-methoxyphenyl)methyl]-2-[methyl(phenylmethyl)amino]-2-oxoethyl]amino]-5-methyl-4-oxo-3,1-benzoxazin-6-yl]methyl]carbamate], the pEC50 was 4.82. As to `Cc1c(CNC(=O)OCc2cccnc2)ccc2nc(N[C@@H](Cc3ccccc3)C(=O)N(C)Cc3ccccc3)oc(=O)c12` [Example 18e, 3-Pyridinylmethyl[[5-methyl-2-[[2-[methyl(phenylmethyl)amino]-2-oxo-1S-(phenylmethyl)ethyl]amino]-4-oxo-4H-3,1-benzoxazin-6-yl]methyl]carbamate], the pEC50 was 5.15.
